According to patent publication US12692261B2, “Substituted heterocyclic compounds and therapeutic uses thereof” (Bayer Aktiengesellschaft, priority 2020, dated 2026):

Assays:
full-length human CSNK1D = biological target: T1, full-length human CSNK1D (Homo sapiens, UniProt P48730); assay: CSNK1D Assay (ADP-Glo, 1 μM ATP); assay type: biochemical; details: Table 3, read-out: CSNK1D IC50 [mol/l] (median)
T1 construct: N-terminal Glutathion-S-Transferase (GST) and full-length human CSNK1D; purchased Life Technologies PV3665; host or cells: baculovirus infected insect cells
Outline: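 Enzyme is N-terminal GST-tagged full-length human CSNK1D from baculovirus-infected insect cells (typically about 0.5 ng/μL), with a biotinylated peptide substrate and 1 μM ATP. Compound pre-incubated 15 min at 22° C in HEPES pH 7.5 buffer; ADP formed is read by ADP-Glo luminescence.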

[1] = biological target: T2, full-length human CSNK1A1 (Homo sapiens, UniProt P48729); assay: CSNK1A1 High ATP Assay (ADP-Glo, 1 mM ATP); assay type: biochemical; details: Table 3, read-out: CSNK1A1 high ATP assay IC50 [mol/l] (median);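 further: 30 min kinase reaction at 22 °C with 100 µM peptide substrate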
T2 construct: N-terminal Glutathion-S-Transferase (GST) and full-length human CSNK1A1; purchased Life Technologies PV4174; host or cells: baculovirus infected insect cells
Outline: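 GST-tagged full-length human CSNK1A1 from baculovirus-infected insect cells (typically about 0.4 ng/μL), pre-incubated with compound 15 min at 22 °C. Reaction with biotinylated peptide biotin-Ahx-KRRRAL-pS-VASLPGL at 1 mM ATP. ADP formed read by ADP-Glo luminescence.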

T2 sequence (P48729 whole entry): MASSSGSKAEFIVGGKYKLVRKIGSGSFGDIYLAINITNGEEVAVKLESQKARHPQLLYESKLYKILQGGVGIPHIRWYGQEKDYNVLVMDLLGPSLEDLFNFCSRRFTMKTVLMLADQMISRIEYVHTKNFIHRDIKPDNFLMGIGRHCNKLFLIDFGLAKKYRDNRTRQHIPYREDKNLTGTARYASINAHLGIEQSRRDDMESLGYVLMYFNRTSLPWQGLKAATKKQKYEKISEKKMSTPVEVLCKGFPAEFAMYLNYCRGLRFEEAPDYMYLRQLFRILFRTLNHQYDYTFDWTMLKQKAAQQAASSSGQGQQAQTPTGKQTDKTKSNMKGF
T1 sequence (P48730 whole entry): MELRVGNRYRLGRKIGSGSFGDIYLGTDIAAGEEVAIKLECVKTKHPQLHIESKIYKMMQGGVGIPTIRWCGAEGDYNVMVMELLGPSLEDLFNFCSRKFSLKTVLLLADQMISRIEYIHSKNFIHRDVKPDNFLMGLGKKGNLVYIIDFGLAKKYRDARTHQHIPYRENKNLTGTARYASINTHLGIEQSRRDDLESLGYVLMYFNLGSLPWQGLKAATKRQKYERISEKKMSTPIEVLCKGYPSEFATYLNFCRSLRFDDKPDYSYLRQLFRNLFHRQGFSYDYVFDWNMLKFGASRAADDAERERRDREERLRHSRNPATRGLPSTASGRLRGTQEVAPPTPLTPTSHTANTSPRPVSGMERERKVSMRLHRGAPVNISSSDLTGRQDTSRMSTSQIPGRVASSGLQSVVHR

Row | Structure (SMILES) | IC50 (full-length human CSNK1D) [nM] | IC50 [1] [nM]
1 | O=C(Nc1cc(-c2[nH]c3c(OCC(F)(F)F)ncnc3c2-c2ccccn2)ccn1)C(CC(F)(F)F)c1ccc(F)cc1 (racemic) [Example 125, (2RS)-4,4,4-trifluoro-2-(4-fluorophenyl)-N-{4-[7-(pyridin-2-yl)-4-(2,2,2-trifluoroethoxy)-5H-pyrrolo[3,2-d]pyrimidin-6-yl]pyridin-2-yl}butanamide] | 14.2 | 46.1
2 | O=C(Nc1cc(-c2[nH]c3c(OC4CC4)cc(F)nc3c2-c2ccccn2)ccn1)C(CC(F)F)c1ccc(F)cc1 (single isomer, unassigned) [Example 43, N-{4-[7-(cyclopropyloxy)-5-fluoro-3-(pyridin-2-yl)-1H-pyrrolo[3,2-b]pyridin-2-yl]pyridin-2-yl}-4,4-difluoro-2-(4-fluorophenyl)butanamide] | 7.64 | 10.2
3 | O=C(Nc1cc(-c2[nH]c3nccnc3c2-c2ccccn2)ccn1)C(CC(F)(F)F)c1ccc(F)cc1 (racemic) [Example 119, (2RS)-4,4,4-trifluoro-2-(4-fluorophenyl)-N-{4-[7-(pyridin-2-yl)-5H-pyrrolo[2,3-b]pyrazin-6-yl]pyridin-2-yl}butanamide] | 7.07 | 48.6
4 | O=C(Nc1cc(-c2[nH]c3c(N4CCNCC4)ccnc3c2-c2ccccn2)ccn1)C(CC(F)F)c1ccc(F)cc1 (single isomer, unassigned) [Example 94, (2R or S)-4,4-difluoro-2-(4-fluorophenyl)-N-{4-[7-(piperazin-1-yl)-3-(pyridin-2-yl)-1H-pyrrolo[3,2-b]pyridin-2-yl]pyridin-2-yl}butanamide] | 3.67 | 2.31
5 | O=C(Nc1cc(-c2[nH]c3c(OCC(F)F)cc(F)nc3c2-c2ccccn2)ccn1)C(CC(F)F)c1ccc(F)cc1 (racemic) [Example 28, (2RS)—N-{4-[7-(2,2-difluoroethoxy)-5-fluoro-3-(pyridin-2-yl)-1H-pyrrolo[3,2-b]pyridin-2-yl]pyridin-2-yl}-4,4-difluoro-2-(4-fluorophenyl)butanamide] | 4 | 3.95
6 | O=C(Nc1cc(-c2[nH]c3cccnc3c2-c2ccccc2)ccn1)C(CC(F)F)c1ccc(F)cc1 (racemic) [Example 22, 4,4-difluoro-2-(4-fluorophenyl)-N-[4-(3-phenyl-1H-pyrrolo[3,2-b]pyridin-2-yl)pyridin-2-yl]butanamide] | 3.18 | 90.4
7 | O=C(Nc1cc(-c2[nH]c3ccc(F)nc3c2-c2cc(F)ccn2)ccn1)C(CC(F)F)c1ccc(F)cc1 (single isomer, unassigned) [Example 96, (2R or S)-4,4-difluoro-N-{4-[5-fluoro-3-(4-fluoropyridin-2-yl)-1H-pyrrolo[3,2-b]pyridin-2-yl]pyridin-2-yl}-2-(4-fluorophenyl)butanamide] | 10.4 | 4.67
8 | O=C(Nc1cc(-c2[nH]c3cccnc3c2-c2ccccc2)ccn1)C(CC(F)F)c1ccc(F)cc1 (single isomer, unassigned; (-)) [Example 23, (−)-4,4-difluoro-2-(4-fluorophenyl)-N-[4-(3-phenyl-1H-pyrrolo[3,2-b]pyridin-2-yl)pyridin-2-yl]butanamide] | 12.5 | 3740
9 | Cc1cnc2c(-c3ccccn3)c(-c3ccnc(NC(=O)C(CC(F)F)c4ccc(F)cc4)c3)[nH]c2c1 (racemic) [Example 7, 4,4-difluoro-2-(4-fluorophenyl)-N-{4-[6-methyl-3-(pyridin-2-yl)-1H-pyrrolo[3,2-b]pyridin-2-yl]pyridin-2-yl}butanamide] | 4.13 | 8.12
10 | O=C(Nc1cc(-c2[nH]c3c(C4CCCO4)cc(F)nc3c2-c2ccccn2)ccn1)C(CC(F)F)c1ccc(F)cc1 (racemic) [Example 114, (2RS)-4,4-difluoro-2-(4-fluorophenyl)-N-(4-{5-fluoro-3-(pyridin-2-yl)-7-[(2RS)-tetrahydrofuran-2-yl]-1H-pyrrolo[3,2-b]pyridin-2-yl}pyridin-2-yl)butanamide] | 8.03 | 37
11 | O=C(Nc1cc(-c2[nH]c3cc(F)cnc3c2-c2ccccn2)ccn1)C(CC(F)F)c1ccc(F)cc1 (single isomer, unassigned; (+)) [Example 17, (+)-4,4-difluoro-2-(4-fluorophenyl)-N-{4-[6-fluoro-3-(pyridin-2-yl)-1H-pyrrolo[3,2-b]pyridin-2-yl]pyridin-2-yl}butanamide] | 3.16 | 5.48
